Measurements: US20260062422A1 (Halda Therapeutics OpCo, Inc., priority 2022, published 2026)

tested on: T47D cells; experiment: Cellular growth inhibition assay for T47D cells, CellTiter-Glo; assay type: cell-based, human; conditions: 72 hours treatment, CellTiter-Glo 2.0 cell viability
Protocol: T47D cells were purchased from American Type Cell Culture (ATCC Cat #HTB-133) and then seeded on poly-D-lysine coated, black clear-bottom 384-well plates at 3000/well in 25 μL Dulbecco's Modified Eagle Medium (DMEM) supplemented with 10% w/w Fetal bovine serum (FBS), 0.2 units/mL recombinant human insulin (Gibco Cat #12585014), and 1% w/w Pen-Strep. Pen-Strep is a commercially available mixture of penicillin G and streptomycin, which is used in mammalian cell culture media to prevent bacterial contamination. Dulbecco's Modified Eagle Medium (DMEM) supplemented with 10% w/w fetal bovine serum (FBS), 0.2 units/mL recombinant human insulin, and 1% w/w Pen-Strep is herein referred to as Treatment Medium. Following seeding of cells in the plates, the plates were spun at 300×g for 30 seconds, then equilibrated to room temperature for 30 minutes, and then deposited in a humidified tissue culture incubator maintained at 37° C. with 5% CO2.
At 24 hours after seeding of the cells, dilutions of test compound were prepared in DMSO and dissolved in Treatment Medium, to achieve a final DMSO concentration of 0.5% w/w, thereby providing the Test Compound Solution. A 25 μL aliquot of the Test Compound Solution was added to cells in the well plates. An equal volume of a solution containing DMSO and Treatment Medium was used as a negative control. Following treatment of cells with Test Compound Solution or said equal volume of a solution containing DMSO and Treatment Medium, the plates were spun at 300×g for 30 seconds, and then left in an incubator for 72 hours.
At the end of the treatment duration, cell viability was quantified with CellTiter-Glo 2.0 reagent (Promega Cat #G9243). For this purpose, plates were equilibrated to room temperature for 30 minutes, and then 25 μL of CellTiter-Glo 2.0 reagent was added to cells in the plate wells. Plates were then agitated on a shaker for two minutes at 500 rpm and subsequently incubated at room temperature for 10 minutes. Following incubation, the plates were spun at 3000×g for 30 seconds, then sealed with an optical adhesive cover, and luminescence readings were measured with an EnVision Plate Reader (Perkin Elmer).
Data was normalized using zero luminescence for baseline. A four-parameter non-linear regression curve fit was applied to dose-response data in GraphPad Prism data analysis software to determine the half-maximal growth inhibitory concentration (GI50) for each test compound.

First: Cc1sc2c(c1C)C(c1ccc(C3CC(CC4CCN(c5ncc(C(=O)N[C@H]6C(C)(C)[C@H](Oc7ccc(C#N)c(Cl)c7)C6(C)C)cn5)CC4)C3)cc1)=NC(C)c1nnc(C)n1-2 (some centres unmarked) [Compound I-508]
Second: Cc1sc2c(c1C)C(c1ccc(CC3CC(CC4CCN(c5ncc(C(=O)N[C@H]6C(C)(C)[C@H](Oc7ccc(C#N)c(Cl)c7)C6(C)C)cn5)CC4)C3)cc1)=N[C@@H](C)c1nnc(C)n1-2 (some centres unmarked) [Compound I-513]
The GI50 of the first is higher: 0.5 to 1.5 µM for the first, under 0.5 µM for the second.

Compared with `Cc1sc2c(c1C)C(c1ccc([C@H]3C[C@@H]3CC3CCCN(c4ncc(C(=O)N[C@H]5C(C)(C)[C@H](Oc6ccc(C#N)c(Cl)c6)C5(C)C)cn4)C3)cc1)=NC(Cc1ncco1)c1nnc(C)n1-2` (some centres unmarked) [Compound I-496], `Cc1sc2c(c1C)C(c1ccc([C@H]3C[C@@H]3CC3CCCN(c4ncc(C(=O)N[C@H]5C(C)(C)[C@H](Oc6ccc(C#N)c(Cl)c6)C5(C)C)cn4)C3)cc1)=N[C@@H](Cc1ncco1)c1nnc(C)n1-2` (some centres unmarked) [Compound I-493] is higher in GI50: under 0.5 µM for the first, 0.5 to 1.5 µM for the second.

Compared with `Cc1sc2c(c1C)C(c1ccc(C#CC3CC(Cc4ncc(C(=O)N[C@H]5C(C)(C)[C@H](Oc6ccc(C#N)c(Cl)c6)C5(C)C)cn4)C3)cc1)=NC(Cc1ncco1)c1nnc(C)n1-2` (some centres unmarked) [Compound I-559], `Cc1sc2c(c1C)C(c1ccc(N3CC(C4CCCC(Cc5ncc(C(=O)N[C@H]6C(C)(C)[C@H](Oc7ccc(C#N)c(Cl)c7)C6(C)C)cn5)C4)C3)cc1)=N[C@@H](Cc1ncco1)c1nnc(C)n1-2` (some centres unmarked) [Compound I-581] is lower in GI50: 0.5 to 1.5 µM for the first, under 0.5 µM for the second.

Going from `Cc1sc2c(c1C)C(c1ccc(CC3CC(C4CCCN(c5ncc(C(=O)N[C@H]6C(C)(C)[C@H](Oc7ccc(C#N)c(Cl)c7)C6(C)C)cn5)C4)C3)cc1)=N[C@@H](C)c1nnc(C)n1-2` (some centres unmarked) [Compound I-489] to `Cc1sc2c(c1C)C(c1ccc(C3CC(CC4CCN(c5ncc(C(=O)N[C@H]6C(C)(C)[C@H](Oc7ccc(C#N)c(Cl)c7)C6(C)C)cn5)CC4)C3)cc1)=NC(C)c1nnc(C)n1-2` (some centres unmarked) [Compound I-510], the GI50 rises from under 0.5 µM to over 3 µM.

Compared with `Cc1sc2c(c1C)C(c1ccc(N3CC(C4CCC(Cc5ncc(C(=O)N[C@H]6C(C)(C)[C@H](Oc7ccc(C#N)c(Cl)c7)C6(C)C)cn5)CC4)C3)cc1)=N[C@@H](Cc1ncco1)c1nnc(C)n1-2` (some centres unmarked) [Compound I-544], `Cc1sc2c(c1C)C(c1ccc(N3CC(C4CCCC(Cc5ncc(C(=O)N[C@H]6C(C)(C)[C@H](Oc7ccc(C#N)c(Cl)c7)C6(C)C)cn5)C4)C3)cc1)=N[C@@H](Cc1ncco1)c1nnc(C)n1-2` (some centres unmarked) [Compound I-582] is lower in GI50: 0.5 to 1.5 µM for the first, under 0.5 µM for the second.

`Cc1sc2c(c1C)C(c1ccc(C3CC3C3CC4(CCN(c5cnc(C(=O)N[C@H]6C(C)(C)[C@H](Oc7ccc(C#N)c(Cl)c7)C6(C)C)cn5)CC4)C3)cc1)=NC(Cc1ncco1)c1nnc(C)n1-2` (some centres unmarked) [Compound I-538] and `Cc1sc2c(c1C)C(c1ccc([C@@H]3C[C@H]3C3CC4(CCN(c5cnc(C(=O)N[C@H]6C(C)(C)[C@H](Oc7ccc(C#N)c(Cl)c7)C6(C)C)cn5)CC4)C3)cc1)=N[C@@H](Cc1ncco1)c1nnc(C)n1-2` [Compound I-519] cannot be ordered by GI50: over 3 µM for the first, over 3 µM for the second.

`Cc1sc2c(c1C)C(c1ccc([C@H]3C[C@@H]3CC3CCCN(c4ncc(C(=O)N[C@H]5C(C)(C)[C@H](Oc6ccc(C#N)c(Cl)c6)C5(C)C)cn4)C3)cc1)=NC(Cc1ncco1)c1nnc(C)n1-2` (some centres unmarked) [Compound I-491] and `Cc1sc2c(c1C)C(c1ccc(OCC3CC4(CCCN(c5ncc(C(=O)N[C@H]6C(C)(C)[C@H](Oc7ccc(C#N)c(Cl)c7)C6(C)C)cn5)C4)C3)cc1)=NC1(CC1)c1nnc(C)n1-2` [Compound I-500] cannot be ordered by GI50: over 3 µM for the first, over 3 µM for the second.

In the case of `Cc1sc2c(c1C)C(c1ccc([C@H]3C[C@@H]3CC3CCCN(c4ncc(C(=O)N[C@H]5C(C)(C)[C@H](Oc6ccc(C#N)c(Cl)c6)C5(C)C)cn4)C3)cc1)=NC(Cc1ncco1)c1nnc(C)n1-2` (some centres unmarked) [Compound I-494], the GI50 is reported as under 0.5 µM.

same assay, conditions: Homo sapiens, T47D, 72 h, 72 hours treatment, CellTiter-Glo 2.0 cell viability

Compared with `Cc1sc2c(c1C)C(c1ccc(N3CC(C4CCN(c5ccc(C(=O)N[C@H]6C(C)(C)[C@H](Oc7ccc(C#N)c(Cl)c7)C6(C)C)cn5)CC4)C3)cc1)=NC1(CC1)c1nnc(C)n1-2` [Compound I-534], `Cc1sc2c(c1C)C(c1ccc(N3CC(CC4CCN(c5ccc(C(=O)N[C@H]6C(C)(C)[C@H](Oc7ccc(C#N)c(Cl)c7)C6(C)C)cn5)CC4)C3)cc1)=NC1(CC1)c1nnc(C)n1-2` [Compound I-523] is lower in GI50: over 3 µM for the first, 1.5 to 3 µM for the second.

First: Cc1sc2c(c1C)C(c1ccc(OC3(C)CC4(CCN(c5ncc(C(=O)N[C@H]6C(C)(C)[C@H](Oc7ccc(C#N)c(Cl)c7)C6(C)C)cn5)CC4)C3)cc1)=N[C@@H](Cc1ncco1)c1nnc(C)n1-2 [Compound I-542]
Second: Cc1sc2c(c1C)C(c1ccc(ON3CC4(C3)CC3(CCN(c5cnc(C(=O)N[C@H]6C(C)(C)[C@H](Oc7ccc(C#N)c(Cl)c7)C6(C)C)cn5)CC3)C4)cc1)=N[C@@H](Cc1ncco1)c1nnc(C)n1-2 [Compound I-545]
The GI50 of the first is higher: over 3 µM for the first, 0.5 to 1.5 µM for the second.

First: Cc1sc2c(c1C)C(c1ccc(CC3CC4(CCN(c5ccc(C(=O)N[C@H]6C(C)(C)[C@H](Oc7ccc(C#N)c(Cl)c7)C6(C)C)nc5)CC4)C3)cc1)=N[C@@H](Cc1ncco1)c1nnc(C)n1-2 [Compound I-553]
Second: Cc1sc2c(c1C)C(c1ccc(CC3CC4(CCN(c5ccc(C(=O)N[C@H]6C(C)(C)[C@H](Oc7ccc(C#N)c(Cl)c7)C6(C)C)nc5)CC4)C3)cc1)=NC1(CC1)c1nnc(C)n1-2 [Compound I-522]
The GI50 of the first is lower: under 0.5 µM for the first, 1.5 to 3 µM for the second.

First: Cc1sc2c(c1C)C(c1ccc(-n3cnc(C4CCN(c5ncc(C(=O)N[C@H]6C(C)(C)[C@H](Oc7ccc(C#N)c(Cl)c7)C6(C)C)cn5)CC4)n3)cc1)=N[C@@H](Cc1ncco1)c1nnc(C)n1-2 [Compound I-497]
Second: Cc1sc2c(c1C)C(c1ccc(C#CC3CC(Cc4ncc(C(=O)N[C@H]5C(C)(C)[C@H](Oc6ccc(C#N)c(Cl)c6)C5(C)C)cn4)C3)cc1)=NC(Cc1ncco1)c1nnc(C)n1-2 (some centres unmarked) [Compound I-560]
The GI50 of the first is lower: under 0.5 µM for the first, 0.5 to 1.5 µM for the second.

First: Cc1sc2c(c1C)C(c1ccc(OCC3CC4(CCCN(c5ncc(C(=O)N[C@H]6C(C)(C)[C@H](Oc7ccc(C#N)c(Cl)c7)C6(C)C)cn5)C4)C3)cc1)=NC1(CC1)c1nnc(C)n1-2 [Compound I-499]
Second: Cc1sc2c(c1C)C(c1ccc(CC3CC4(CCN(c5cnc(C(=O)N[C@H]6C(C)(C)[C@H](Oc7ccc(C#N)c(Cl)c7)C6(C)C)cn5)CC4)C3)cc1)=NC1(CC1)c1nnc(C)n1-2 [Compound I-520]
The GI50 of the first is higher: over 3 µM for the first, under 0.5 µM for the second.

First: Cc1sc2c(c1C)C(c1ccc(OC3CC4(C3)CC3(CCN(c5cnc(C(=O)N[C@H]6C(C)(C)[C@H](Oc7ccc(C#N)c(Cl)c7)C6(C)C)cn5)CC3)C4)cc1)=NC1(CC1)c1nnc(C)n1-2 [Compound I-521]
Second: Cc1sc2c(c1C)C(c1ccc(CC3CC4(CCN(c5ccc(C(=O)N[C@H]6C(C)(C)[C@H](Oc7ccc(C#N)c(Cl)c7)C6(C)C)cn5)CC4)C3)cc1)=NC1(CC1)c1nnc(C)n1-2 [Compound I-507]
The GI50 of the first is higher: over 3 µM for the first, under 0.5 µM for the second.

First: Cc1sc2c(c1C)C(c1ccc(CCOC3CCN(c4ncc(C(=O)N[C@H]5C(C)(C)[C@H](Oc6ccc(C#N)c(Cl)c6)C5(C)C)cn4)CC3)cc1)=N[C@@H](C)c1nnc(C)n1-2 [Compound I-501]
Second: Cc1sc2c(c1C)C(c1ccc(N3CC4(C3)CN(c3ncc(C(=O)N[C@H]5C(C)(C)[C@H](Oc6ccc(C#N)c(Cl)c6)C5(C)C)cn3)C4)cc1)=N[C@@H](C)c1nnc(C)n1-2 [Compound I-516]
The GI50 of the first is lower: 0.5 to 1.5 µM for the first, 1.5 to 3 µM for the second.

Compared with `Cc1sc2c(c1C)C(c1ccc(N3CC(C4CCN(c5ccc(C(=O)N[C@H]6C(C)(C)[C@H](Oc7ccc(C#N)c(Cl)c7)C6(C)C)nc5)CC4)C3)cc1)=N[C@@H](C)c1nnc(C)n1-2` [Compound I-552], `Cc1sc2c(c1C)C(c1ccc(N3CC(C4CCN(c5cnc(C(=O)N[C@H]6C(C)(C)[C@H](Oc7ccc(C#N)c(Cl)c7)C6(C)C)cn5)CC4)C3)cc1)=N[C@@H](C)c1nnc(C)n1-2` [Compound I-490] is lower in GI50: 1.5 to 3 µM for the first, 0.5 to 1.5 µM for the second.

`Cc1sc2c(c1C)C(c1ccc(C3CC3C3CC4(CCN(c5cnc(C(=O)N[C@H]6C(C)(C)[C@H](Oc7ccc(C#N)c(Cl)c7)C6(C)C)cn5)CC4)C3)cc1)=N[C@@H](C)c1nnc(C)n1-2` (some centres unmarked) [Compound I-535] and `Cc1sc2c(c1C)C(c1ccc(C3CC3C3CC4(CCN(c5ncc(C(=O)N[C@H]6C(C)(C)[C@H](Oc7ccc(C#N)c(Cl)c7)C6(C)C)cn5)CC4)C3)cc1)=N[C@@H](C)c1nnc(C)n1-2` (some centres unmarked) [Compound I-537] cannot be ordered by GI50: over 3 µM for the first, over 3 µM for the second.

Going from `Cc1sc2c(c1C)C(c1ccc(N3CC(CC4CCN(c5ccc(C(=O)N[C@H]6C(C)(C)[C@H](Oc7ccc(C#N)c(Cl)c7)C6(C)C)cn5)CC4)C3)cc1)=N[C@@H](C)c1nnc(C)n1-2` [Compound I-502] to `Cc1sc2c(c1C)C(c1ccc(N3CC(CC4CN(c5ccc(C(=O)N[C@H]6C(C)(C)[C@H](Oc7ccc(C#N)c(Cl)c7)C6(C)C)cn5)C4)C3)cc1)=NC1(CC1)c1nnc(C)n1-2` [Compound I-532], the GI50 rises from under 0.5 µM to over 3 µM.
